Molecules are shown by their SMILES.

One may read the Kd as the equilibrium constant for the complex coming apart.

The test concerns the target T1, NEDD4-1 (Homo sapiens, UniProt P46934).
T1 sequence (P46934 1-1319): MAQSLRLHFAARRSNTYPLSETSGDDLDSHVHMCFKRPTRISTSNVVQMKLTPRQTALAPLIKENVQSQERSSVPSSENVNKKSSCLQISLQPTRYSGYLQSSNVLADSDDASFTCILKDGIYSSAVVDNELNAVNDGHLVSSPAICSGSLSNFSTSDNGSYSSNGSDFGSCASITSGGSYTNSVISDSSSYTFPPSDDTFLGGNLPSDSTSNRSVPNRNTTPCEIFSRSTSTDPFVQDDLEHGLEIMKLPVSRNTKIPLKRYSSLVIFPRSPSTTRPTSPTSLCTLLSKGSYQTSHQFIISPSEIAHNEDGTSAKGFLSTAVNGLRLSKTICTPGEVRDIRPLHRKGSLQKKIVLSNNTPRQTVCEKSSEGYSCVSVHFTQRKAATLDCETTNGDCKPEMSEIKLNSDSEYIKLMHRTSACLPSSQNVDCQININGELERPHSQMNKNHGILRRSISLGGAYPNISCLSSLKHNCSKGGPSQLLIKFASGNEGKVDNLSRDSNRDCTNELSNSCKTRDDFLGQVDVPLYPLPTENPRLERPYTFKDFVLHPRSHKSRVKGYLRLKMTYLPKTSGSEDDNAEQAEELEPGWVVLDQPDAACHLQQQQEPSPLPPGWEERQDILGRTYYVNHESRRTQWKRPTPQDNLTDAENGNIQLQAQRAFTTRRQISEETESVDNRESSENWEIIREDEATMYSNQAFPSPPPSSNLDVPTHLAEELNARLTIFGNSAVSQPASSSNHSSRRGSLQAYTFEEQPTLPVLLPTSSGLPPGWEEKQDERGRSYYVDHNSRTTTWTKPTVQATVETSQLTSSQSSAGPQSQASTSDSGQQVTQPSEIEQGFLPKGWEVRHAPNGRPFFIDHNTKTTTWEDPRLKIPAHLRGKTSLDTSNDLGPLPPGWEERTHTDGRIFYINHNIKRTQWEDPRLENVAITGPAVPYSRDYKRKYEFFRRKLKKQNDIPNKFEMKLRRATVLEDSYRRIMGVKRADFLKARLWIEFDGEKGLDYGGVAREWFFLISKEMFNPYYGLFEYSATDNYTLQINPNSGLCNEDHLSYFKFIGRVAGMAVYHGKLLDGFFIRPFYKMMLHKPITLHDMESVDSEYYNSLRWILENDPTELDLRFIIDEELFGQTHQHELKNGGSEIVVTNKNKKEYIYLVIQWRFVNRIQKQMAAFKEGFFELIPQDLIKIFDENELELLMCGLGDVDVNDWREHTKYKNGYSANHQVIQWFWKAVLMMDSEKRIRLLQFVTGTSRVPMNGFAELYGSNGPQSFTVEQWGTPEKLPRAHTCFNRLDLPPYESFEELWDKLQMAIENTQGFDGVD
The test can be described thus: isothermal titration calorimetry. Type of test: binding. A general note: Isothermal titration calorimetry measures the heat released or taken up as one component is titrated into another.

As to `OCc1c[nH]c2ccccc12` [I3C, indole-3-carbinol], the Kd was ~88.1 µM.
